System: Eimeria Tenella (Weybridge) sporozites
Assay: in vitro anti-coccidial activity, primary explant cultures of chick embryo liver cells with sporozites
Format: cell-based
Conditions: with sulphaquinoxaline 0.01 μg/ml and diaveridine 0.031 μg/ml
Method: The anti-coccidial activity of compounds of formula (III) alone and in combination with a mixture of diaveridine (DV) and sulphaquinoxaline (SQX) in vitro was tested according to the following procedure.
Using standard test procedures employing primary explant cultures of chick embryo liver cells and a suspension of Eimeria Tenella (Weybridge) sporozites the activity of the compounds was determined at various concentrations. In the above test, each test compound was used either alone or in combination with sulphaquinoxaline (0.01 μg/ml) and diaveridine (0.031 μg/ml). It should be noted that the minimum active anti-coccidial amounts of sulphaquinoxaline and diaveridine are 0.024 μg/ml and 0.098 μg/ml respectively.
The following results were obtained wherein activity is expressed as follows: […]

Row | Structure (SMILES) | Activity, with DV/SQX (100 μg/ml) | Activity, with DV/SQX (25 μg/ml)
1 | COC(=O)C1=NN(C)c2nc(N)[nH]c(=O)c2C(c2cc(OC)c(OC)c(OC)c2)=C1 [Example 6, 8-Amino-3-carbomethoxy-1-methyl-5-(3,4,5-trimethoxyphenyl)-1H-pyrimido{4,5-c}-1,2-diazepin-6(7H)-one] | 5 (No parasite development) | 
2 | CCOC(=O)C1=NN(C)c2nc(N)[nH]c(=O)c2C(c2ccc(OC)cc2OC)=C1 [Example 7, 8-Amino-3-carbethoxy-1-methyl-5-(2,4-dimethoxyphenyl)-1H-pyrimido{4,5-c}-1,2-diazepin-6(7H)-one] | 5 (No parasite development) | 5 (No parasite development)
